Our source for the EC50 values is patent publication US11708348B2, “Protease inhibitors for treatment of coronavirus infections” (The Scripps Research Institute, priority 2021, dated 2023).

One test concerns SARS-CoV-2 strain USA-WA1/2020. The experiment in a line: microbe, parasite or virus in culture. It counts as cell-based. To be noted: Severe acute respiratory syndrome coronavirus 2, HeLa-ACE2, 24 h, HeLa-ACE2 cells, SARS-CoV-2 infection, 24 h; bound printed in cell; read-out: EC50, uM (Hela).
With `O=C(NC1CCNCC1)C(=O)N[C@@H](CC1CC1)C(=O)N[C@@H](C[C@@H]1CCNC1=O)C(=O)COC(F)(F)F` [Compound 232, N1-((S)-3-cyclopropyl-1-oxo-1-(((S)-3-oxo-1-((S)-2-oxopyrrolidin-3-yl)-4-(trifluoromethoxy)butan-2-yl)amino)propan-2-yl)-N2-(piperidin-4-yl)oxalamide], the EC50 was more than 1 µM.
Same read-out and setting: under `O=C(NC1CS(=O)(=O)C1)C(=O)N[C@@H](CC1CC1)C(=O)N[C@@H](C[C@@H]1CCNC1=O)C(=O)COC(F)(F)F` [Compound 234, N1-((S)-3-cyclopropyl-1-oxo-1-(((S)-3-oxo-1-((S)-2-oxopyrrolidin-3-yl)-4-(trifluoromethoxy)butan-2-yl)amino)propan-2-yl)-N2-(l,1-dioxidothietan-3-yl)oxalamide] stands more than 1 µM.
Turning to `CC(C)C[C@H](NC(=O)C(N)=O)C(=O)N[C@@H](C[C@@H]1CCNC1=O)C(=O)COC(F)(F)F` [Compound 239, N1-((S)-4-methyl-1-oxo-1-(((S)-3-oxo-1-((S)-2-oxopyrrolidin-3-yl)-4-(trifluoromethoxy)butan-2-yl)amino)pentan-2-yl)oxalamide], the EC50 was more than 1 µM.

The same test, now with this note: Severe acute respiratory syndrome coronavirus 2, HeLa-ACE2, 24 h, HeLa-ACE2 cells, SARS-CoV-2 infection, 24 h; class symbols; read-out: EC50, uM (Hela).
Turning to `CC(C)C[C@H](NC(=O)C1CCC(=O)O1)C(=O)N[C@@H](C[C@@H]1CCNC1=O)C(=O)COC(F)(F)F` (stereo partly drawn) [Compound 213, N-((S)-4-methyl-1-oxo-1-(((S)-3-oxo-1-((S)-2-oxopyrrolidin-3-yl)-4-(trifluoromethoxy)butan-2-yl)amino)pentan-2-yl)-5-oxotetrahydrofuran-2-carboxamide], the EC50 is 0.5 to 1 µM.
As to `CC(C)C[C@H](NC(=O)C1(C)CCCO1)C(=O)N[C@@H](C[C@@H]1CCNC1=O)C(=O)COC(F)(F)F` (stereo partly drawn) [Compound 214, 2-methyl-N-((S)-4-methyl-1-oxo-1-(((S)-3-oxo-1-((S)-2-oxopyrrolidin-3-yl)-4-(trifluoromethoxy)butan-2-yl)amino)pentan-2-yl)tetrahydrofuran-2-carboxamide], the concentration giving a half-maximal response (EC50) fell in the range of 0.05 to 0.2 µM.
In the case of `CC1(NC(=O)C(=O)N[C@@H](Cc2cccc(F)c2)C(=O)N[C@@H](C[C@@H]2CCNC2=O)C(=O)COC(F)(F)F)CC1` [Compound 215, N1-((S)-3-(3-fluorophenyl)-1-oxo-1-(((S)-3-oxo-1-((S)-2-oxopyrrolidin-3-yl)-4-(trifluoromethoxy)butan-2-yl)amino)propan-2-yl)-N2-(1-methylcyclopropyl)-oxalamide], the EC50 was less than 0.05 µM.
Still for that read-out and setting: under `CC(C)C[C@H](NC(=O)C(=O)NC1(c2ccccc2F)CC1)C(=O)N[C@@H](C[C@@H]1CCNC1=O)C(=O)COC(F)(F)F` [Compound 216, Nl-(1-(2-fluorophenyl)-cyclopropyl)-N2-((S)-4-methyl-1-oxo-1-(((S)-3-oxo-1-((S)-2-oxopyrrolidin-3-yl)-4-(trifluoromethoxy)butan-2-yl)amino)pentan-2-yl)oxalamide] stands less than 0.05 µM; under `CC(C)C[C@H](NC(=O)C(=O)NC1(C)CC1)C(=O)N[C@@H](C[C@@H]1CCNC1=O)C(=O)COC(F)(F)F` [Compound 217, N1-((S)-4-methyl-1-oxo-1-(((S)-3-oxo-1-((S)-2-oxopyrrolidin-3-yl)-4-(trifluoromethoxy)butan-2-yl)amino)pentan-2-yl)-N2-(1-methylcyclopropyl)-oxalamide], less than 0.05 µM; under `O=C(Nc1ccccc1F)C(=O)N[C@@H](CC1CCNC1=O)C(=O)N[C@@H](C[C@@H]1CCNC1=O)C(=O)COC(F)(F)F` (stereo partly drawn) [Compound 218, N1-(2-fluorophenyl)-N2-((2S)-1-oxo-1-(((S)-3-oxo-1-((S)-2-oxopyrrolidin-3-yl)-4-(trifluoromethoxy)butan-2-yl)amino)-3-(2-oxopyrrolidin-3-yl)propan-2-yl)oxalamide], 0.5 to 1 µM.
Turning to `CC(C)C[C@H](NC(=O)C(=O)Nc1ccccc1F)C(=O)N[C@@H](C[C@@H]1CCCNC1=O)C(=O)COC(F)(F)F` [Compound 219, N^1-(2-fluorophenyl)-N^2—((S)-4-methyl-1-oxo-1-(((S)-3-oxo-1-((S)-2-oxopiperidin-3-yl)-4-(trifluoromethoxy)butan-2-yl)amino)pentan-2-yl)oxalamide], the EC50 is less than 0.05 µM.
Same read-out and setting: in the case of `CC1(NC(=O)C(=O)N[C@@H](CC2CC2)C(=O)N[C@@H](C[C@@H]2CCNC2=O)C(=O)COC(F)(F)F)CC(F)(F)C1` [Compound 220, N1-((S)-3-cyclopropyl-1-oxo-1-(((S)-3-oxo-1-((S)-2-oxopyrrolidin-3-yl)-4-(trifluoromethoxy)butan-2-yl)amino)propan-2-yl)-N2-(3,3-difluoro-1-methylcyclobutyl)-oxalamide] it was less than 0.05 µM; in that of `CC(C)C[C@H](NC(=O)C(=O)NC1CCC1)C(=O)N[C@@H](C[C@@H]1CCNC1=O)C(=O)COC(F)(F)F` [Compound 221, N1-cyclobutyl-N2-((S)-4-methyl-1-oxo-1-(((S)-3-oxo-1-((S)-2-oxopyrrolidin-3-yl)-4-(trifluoromethoxy)butan-2-yl)amino)pentan-2-yl)oxalamide], less than 0.05 µM.
With `CC1(NC(=O)C(=O)N[C@@H](CC2CC2)C(=O)N[C@@H](C[C@@H]2CCNC2=O)C(=O)COC(F)(F)F)CCOCC1` [Compound 222, N1-((S)-3-cyclopropyl-1-oxo-1-(((S)-3-oxo-1-((S)-2-oxopyrrolidin-3-yl)-4-(trifluoromethoxy)butan-2-yl)amino)propan-2-yl)-N2-(4-methyltetrahydro-2H-pyran-4-yl)oxalamide], the EC50 is 0.05 to 0.2 µM.
As to `O=C(N[C@@H](CC1CC1)C(=O)N[C@@H](C[C@@H]1CCNC1=O)C(=O)COC(F)(F)F)c1ncc(-c2ccccc2)[nH]1` [Compound 223, N-((S)-3-cyclopropyl-1-oxo-1-(((S)-3-oxo-1-((S)-2-oxopyrrolidin-3-yl)-4-(trifluoromethoxy)butan-2-yl)amino)propan-2-yl)-5-phenyl-1H-imidazole-2-carboxamide], the EC50 is less than 0.05 µM.
Still for that read-out and setting: under `CC(C)C[C@H](NC(=O)c1ncc(-c2ccccc2)[nH]1)C(=O)N[C@@H](C[C@@H]1CCNC1=O)C(=O)COC(F)(F)F` [Compound 224, N-((S)-4-methyl-1-oxo-1-(((S)-3-oxo-1-((S)-2-oxopyrrolidin-3-yl)-4-(trifluoromethoxy)butan-2-yl)amino)pentan-2-yl)-5-phenyl-1H-imidazole-2-carboxamide] stands less than 0.05 µM.
`CC(C)(C)C[C@H](NC(=O)C(=O)NC12CC(F)(C1)C2)C(=O)N[C@@H](C[C@@H]1CCNC1=O)C(=O)COC(F)(F)F` [Compound 226, N1-((S)-4,4-dimethyl-1-oxo-1-(((S)-3-oxo-1-((S)-2-oxopyrrolidin-3-yl)-4-(trifluoromethoxy)butan-2-yl)amino)pentan-2-yl)-N2-(3-fluorobicyclo[1.1.1]-pentan-1-yl)oxalamide]: the EC50 was less than 0.05 µM.
On the same count and under the same terms, in the case of `O=C(Nc1ccccc1F)C(=O)N[C@@H](CC1CCCC1(F)F)C(=O)N[C@@H](C[C@@H]1CCNC1=O)C(=O)COC(F)(F)F` (stereo partly drawn) [Compound 227, N1-((2S)-3-(2,2-difluoro-cyclopentyl)-1-oxo-1-(((S)-3-oxo-1-((S)-2-oxopyrrolidin-3-yl)-4-(trifluoromethoxy)butan-2-yl)amino)propan-2-yl)-N2-(2-fluorophenyl)-oxalamide] it was less than 0.05 µM.
Still for that read-out and setting: under `COc1cccc2[nH]c(C(=O)N[C@@H](CC(C)C)C(=O)N[C@@H](C[C@@H]3CCCNC3=O)C(=O)COC(F)(F)F)cc12` [Compound 229, 4-methoxy-N-((S)-4-methyl-1-oxo-1-(((S)-3-oxo-1-((S)-2-oxopiperidin-3-yl)-4-(trifluoromethoxy)butan-2-yl)amino)pentan-2-yl)-1H-indole-2-carboxamide] stands less than 0.05 µM; under `CC(C)C[C@H](NC(=O)C(=O)NC1(CO)CC1)C(=O)N[C@@H](C[C@@H]1CCNC1=O)C(=O)COC(F)(F)F` [Compound 231, Nl-(l-(hydroxymethyl)-cyclopropyl)-N2-((S)-4-methyl-1-oxo-1-(((S)-3-oxo-1-((S)-2-oxopyrrolidin-3-yl)-4-(trifluoromethoxy)butan-2-yl)amino)pentan-2-yl)oxalamide], 0.5 to 1 µM; under `COc1cccc2[nH]c(C(=O)N[C@@H](CCCc3ccccc3)C(=O)N[C@@H](C[C@@H]3CCNC3=O)C(=O)COC(F)(F)F)cc12` [Compound 233, 4-methoxy-N-((S)-1-oxo-1-(((S)-3-oxo-1-((S)-2-oxopyrrolidin-3-yl)-4-(trifluoromethoxy)butan-2-yl)amino)-5-phenylpentan-2-yl)-1H-indole-2-carboxamide], 0.05 to 0.2 µM.
Take `COC[C@@H](Nc1ccccc1F)C(=O)N[C@@H](CC(C)C)C(=O)N[C@@H](C[C@@H]1CCNC1=O)C(=O)COC(F)(F)F` [Compound 235, (S)-2-((R)-2-((2-fluorophenyl)amino)-3-methoxypropanamido)-4-methyl-N-((S)-3-oxo-1-((S)-2-oxopyrrolidin-3-yl)-4-(trifluoromethoxy)butan-2-yl)pentanamide]: the EC50 is less than 0.05 µM.
As for `COC[C@H](Nc1ccccc1F)C(=O)N[C@@H](CC(C)C)C(=O)N[C@@H](C[C@@H]1CCNC1=O)C(=O)COC(F)(F)F` [Compound 236, (S)-2-((S)-2-((2-fluorophenyl)amino)-3-methoxypropanamido)-4-methyl-N-((S)-3-oxo-1-((S)-2-oxopyrrolidin-3-yl)-4-(trifluoromethoxy)butan-2-yl)pentanamide], the EC50 was less than 0.05 µM.
Consider `CC(C)C[C@H](NC(=O)C(=O)NC1(C(F)(F)F)CC1)C(=O)N[C@@H](C[C@@H]1CCNC1=O)C(=O)COC(F)(F)F` [Compound 237, N1-((S)-4-methyl-1-oxo-1-(((S)-3-oxo-1-((S)-2-oxopyrrolidin-3-yl)-4-(trifluoromethoxy)butan-2-yl)amino)pentan-2-yl)-N2-(1-(trifluoromethyl)-cyclopropyl)oxalamide], for which the half-maximal effective concentration (EC50) is less than 0.05 µM.
Turning to `COCC1(NC(=O)C(=O)N[C@@H](CC2CC2)C(=O)N[C@@H](C[C@@H]2CCNC2=O)C(=O)COC(F)(F)F)COC1` [Compound 238, N1-((S)-3-cyclopropyl-1-oxo-1-(((S)-3-oxo-1 ((S)-2-oxopyrrolidin-3-yl)-4-(trifluoromethoxy)butan-2-yl)amino)propan-2-yl)-N2-(3-(methoxymethyl)oxetan-3-yl)oxalamide], the concentration for a half-maximal effect (EC50) was 0.2 to 0.5 µM.
